In PubChem BioAssay AID1963854 (Molecular Pharmacology Branch, DTP, NCI, 2024):

Tested on: 186277-243-T-J2-PDC complex spheroid viability
Experiment: Anticancer human tumor 186277-243-T-J2-PDC patient-derived colon adenocarcinoma cell line growth inhibition [POLQ]
Settings: for IC50: curve of first compound; for viability, T/C: stronger effect = lower value
Procedure, shortened: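 Growth inhibition in 3D: complex spheroids (tumor PDC, HUVEC, MSC) treated with POLQ inhibitor combinations; where Cmax unknown, highest tested concentration 10 microM, except SN-38 at 1 microM.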

[1] = second compound 0.0316 µM, first compound 0.0316 µM
[2] = second compound 0.0316 µM, first compound 0.1 µM
[3] = second compound 0.0316 µM, first compound 0.316 µM
[4] = second compound 0.0316 µM, first compound 1 µM
[5] = second compound 0.0316 µM, first compound 3.16 µM
[6] = second compound 0.0316 µM, first compound 10 µM
[7] = second compound 0.1 µM, first compound 0.0316 µM
[8] = second compound 0.1 µM, first compound 0.1 µM
[9] = second compound 0.1 µM, first compound 0.316 µM
[10] = second compound 0.1 µM, first compound 1 µM
[11] = second compound 0.1 µM, first compound 3.16 µM
[12] = second compound 0.1 µM, first compound 10 µM
[13] = second compound 0.316 µM, first compound 0.0316 µM
[14] = second compound 0.316 µM, first compound 0.1 µM
[15] = second compound 0.316 µM, first compound 0.316 µM
[16] = second compound 0.316 µM, first compound 1 µM
[17] = second compound 0.316 µM, first compound 3.16 µM
[18] = second compound 0.316 µM, first compound 10 µM
[19] = second compound 1 µM, first compound 0.0316 µM
[20] = second compound 1 µM, first compound 0.1 µM
[21] = second compound 1 µM, first compound 0.316 µM
[22] = second compound 1 µM, first compound 1 µM
[23] = second compound 1 µM, first compound 3.16 µM
[24] = second compound 1 µM, first compound 10 µM
[25] = second compound 3.16 µM, first compound 0.0316 µM
[26] = second compound 3.16 µM, first compound 0.1 µM
[27] = second compound 3.16 µM, first compound 0.316 µM
[28] = second compound 3.16 µM, first compound 1 µM
[29] = second compound 3.16 µM, first compound 3.16 µM
[30] = second compound 3.16 µM, first compound 10 µM
[31] = second compound 10 µM, first compound 0.0316 µM
[32] = second compound 10 µM, first compound 0.1 µM
[33] = second compound 10 µM, first compound 0.316 µM
[34] = second compound 10 µM, first compound 1 µM
[35] = second compound 10 µM, first compound 3.16 µM
[36] = second compound 10 µM, first compound 10 µM
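Note: spheroids exposed to compounds for seven days.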
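Throughout, for viability, T/C: 100% = DMSO vehicle control viability.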

With `COc1cc2cc(C(=O)CCC(=O)O)sc2cc1OC` + COC1C(OC(N)=O)C(O)C(Oc2ccc3c(O)c(NC(=O)c4ccc(O)c(CC=C(C)C)c4)c(=O)oc3c2C)OC1(C)C the IC50 (second compound 0.0316 µM) was greater than 10 µM, the IC50 (second compound 0.1 µM) was greater than 10 µM and the IC50 (second compound 0.316 µM) was greater than 10 µM. It also gave an IC50 (second compound 1 µM) greater than 10 µM, an IC50 (second compound 3.16 µM) greater than 10 µM and an IC50 (second compound 10 µM) greater than 10 µM. It also gave a viability, T/C [1] of 110%, a viability, T/C [2] of 99.3% and a viability, T/C [3] of 101%. The viability, T/C [4] was 99.2%, the viability, T/C [5] was 106% and the viability, T/C [6] was 96.6%. It also gave a viability, T/C [7] of 98.3%, a viability, T/C [8] of 88% and a viability, T/C [9] of 103%. The viability, T/C [10] was 101%, the viability, T/C [11] was 103% and the viability, T/C [12] was 103%. It also gave a viability, T/C [13] of 102%, a viability, T/C [14] of 102% and a viability, T/C [15] of 93.6%. It also gave a viability, T/C [16] of 99.5%, a viability, T/C [17] of 98.1% and a viability, T/C [18] of 120%. For the same compound, the viability, T/C [19] was 111%, the viability, T/C [20] was 99.1% and the viability, T/C [21] was 109%. For the same compound, the viability, T/C [22] was 106%, the viability, T/C [23] was 110% and the viability, T/C [24] was 103%. It also gave a viability, T/C [25] of 89.5%, a viability, T/C [26] of 108% and a viability, T/C [27] of 100%. The viability, T/C [28] was 98.9%, the viability, T/C [29] was 105% and the viability, T/C [30] was 114%. The viability, T/C [31] was 106%, the viability, T/C [32] was 111% and the viability, T/C [33] was 110%. It also gave a viability, T/C [34] of 117%, a viability, T/C [35] of 105% and a viability, T/C [36] of 101%.

With `Cn1ncnc1[C@H]1c2n[nH]c(=O)c3cc(F)cc(c23)N[C@@H]1c1ccc(F)cc1` + Nc1ccc(C#CCN(C(=O)Cc2ncc(C(F)(F)F)cc2C(F)(F)F)c2ccc(F)cc2)nn1 the IC50 (second compound 0.0316 µM) was greater than 0.1 µM, the IC50 (second compound 0.1 µM) was greater than 0.1 µM and the IC50 (second compound 0.316 µM) was greater than 0.1 µM. It also gave an IC50 (second compound 1 µM) greater than 0.1 µM, an IC50 (second compound 3.16 µM) greater than 0.1 µM and an IC50 (second compound 10 µM) greater than 0.1 µM. It also gave a viability, T/C (second compound 0.0316 µM, first compound 0.000316 µM) of 101%, a viability, T/C (second compound 0.0316 µM, first compound 0.001 µM) of 90.9% and a viability, T/C (second compound 0.0316 µM, first compound 0.00316 µM) of 110%. The viability, T/C (second compound 0.0316 µM, first compound 0.01 µM) was 113%, the viability, T/C [1] was 130% and the viability, T/C [2] was 124%. It also gave a viability, T/C (second compound 0.1 µM, first compound 0.000316 µM) of 103%, a viability, T/C (second compound 0.1 µM, first compound 0.001 µM) of 101% and a viability, T/C (second compound 0.1 µM, first compound 0.00316 µM) of 111%. The viability, T/C (second compound 0.1 µM, first compound 0.01 µM) was 105%, the viability, T/C [7] was 125% and the viability, T/C [8] was 142%. It also gave a viability, T/C (second compound 0.316 µM, first compound 0.000316 µM) of 87.5%, a viability, T/C (second compound 0.316 µM, first compound 0.001 µM) of 110% and a viability, T/C (second compound 0.316 µM, first compound 0.00316 µM) of 102%. For the same compound, the viability, T/C (second compound 0.316 µM, first compound 0.01 µM) was 111%, the viability, T/C [13] was 119% and the viability, T/C [14] was 143%. For the same compound, the viability, T/C (second compound 1 µM, first compound 0.000316 µM) was 91.3%, the viability, T/C (second compound 1 µM, first compound 0.001 µM) was 116% and the viability, T/C (second compound 1 µM, first compound 0.00316 µM) was 103%. For the same compound, the viability, T/C (second compound 1 µM, first compound 0.01 µM) was 106%, the viability, T/C [19] was 120% and the viability, T/C [20] was 126%. The viability, T/C (second compound 3.16 µM, first compound 0.000316 µM) was 92.3%, the viability, T/C (second compound 3.16 µM, first compound 0.001 µM) was 111% and the viability, T/C (second compound 3.16 µM, first compound 0.00316 µM) was 112%. For the same compound, the viability, T/C (second compound 3.16 µM, first compound 0.01 µM) was 105%, the viability, T/C [25] was 116% and the viability, T/C [26] was 140%. For the same compound, the viability, T/C (second compound 10 µM, first compound 0.000316 µM) was 93.4%, the viability, T/C (second compound 10 µM, first compound 0.001 µM) was 104% and the viability, T/C (second compound 10 µM, first compound 0.00316 µM) was 106%. For the same compound, the viability, T/C (second compound 10 µM, first compound 0.01 µM) was 103%, the viability, T/C [31] was 117% and the viability, T/C [32] was 121%.

`C=CC(=O)N1CCN(c2nc(=O)n(-c3c(C)ccnc3C(C)C)c3nc(-c4c(O)cccc4F)c(F)cc23)C(C)C1` (stereo unspecified) + Cc1cccc(N(C)C(=O)C2C(O)CCN2c2nc(C)cc(C(F)(F)F)c2C#N)c1 was tested, and the IC50 (second compound 0.0316 µM) was greater than 10 µM, the IC50 (second compound 0.1 µM) was greater than 10 µM and the IC50 (second compound 0.316 µM) was greater than 10 µM. The IC50 (second compound 1 µM) was greater than 10 µM, the IC50 (second compound 3.16 µM) was greater than 10 µM and the IC50 (second compound 10 µM) was greater than 10 µM. The viability, T/C [1] was 92.8%, the viability, T/C [2] was 101% and the viability, T/C [3] was 82.2%. For the same compound, the viability, T/C [4] was 90.9%, the viability, T/C [5] was 99.5% and the viability, T/C [6] was 103%. The viability, T/C [7] was 106%, the viability, T/C [8] was 98.6% and the viability, T/C [9] was 103%. For the same compound, the viability, T/C [10] was 84.7%, the viability, T/C [11] was 107% and the viability, T/C [12] was 104%. For the same compound, the viability, T/C [13] was 90.4%, the viability, T/C [14] was 91.5% and the viability, T/C [15] was 102%. It also gave a viability, T/C [16] of 99.5%, a viability, T/C [17] of 112% and a viability, T/C [18] of 102%. For the same compound, the viability, T/C [19] was 99.8%, the viability, T/C [20] was 108% and the viability, T/C [21] was 98.6%. For the same compound, the viability, T/C [22] was 96.2%, the viability, T/C [23] was 108% and the viability, T/C [24] was 101%. The viability, T/C [25] was 106%, the viability, T/C [26] was 99% and the viability, T/C [27] was 84%. For the same compound, the viability, T/C [28] was 106%, the viability, T/C [29] was 111% and the viability, T/C [30] was 103%. It also gave a viability, T/C [31] of 97.9%, a viability, T/C [32] of 106% and a viability, T/C [33] of 108%. For the same compound, the viability, T/C [34] was 102%, the viability, T/C [35] was 97.3% and the viability, T/C [36] was 95.9%.
